Publication PMC3103136 (2011)

Columns and labels:
[1] = molecular target: T1, human tear lipocalin (TL) (Homo sapiens, UniProt P31025, C119L); assay: fluorescence titration, steady-state deconvoluted with time-resolved lifetimes; assay type: binding
[2] = molecular target: human tear lipocalin (TL) mutant S61/S153 (Homo sapiens, UniProt P31025, C119L/C171S/C79S); assay: as above; assay type: binding
[3] = molecular target: human tear lipocalin (TL) mutant S61/S153 (Homo sapiens, UniProt P31025, C79S/C119L/C171S); assay: time-dependent fluorescence binding kinetics
[4] = molecular target: T1, human tear lipocalin (TL); assay: time-dependent fluorescence binding kinetics

T1 sequence (P31025 19-176 C119L): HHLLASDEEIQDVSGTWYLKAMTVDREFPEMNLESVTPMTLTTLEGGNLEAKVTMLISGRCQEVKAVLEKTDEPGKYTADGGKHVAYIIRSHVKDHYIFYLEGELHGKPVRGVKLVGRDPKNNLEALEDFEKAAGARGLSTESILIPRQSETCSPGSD
Chain of human tear lipocalin (TL) mutant S61/S153 (Homo sapiens, UniProt P31025, C79S/C119L/C171S) (P31025 19-176 C79S/C119L/C171S): as the sequence (P31025 19-176 C119L) above, with C61S, C153S counted along it
Chain of human tear lipocalin (TL) mutant S61/S153 (Homo sapiens, UniProt P31025, C119L/C171S/C79S) (P31025 19-176 C79S/C119L/C171S): as the sequence (P31025 19-176 C119L) above, with C61S, C153S counted along it

| Kd [1] | Kd [2] | SMILES | time-dependent fluorescence binding kinetics (time constant) [3] | time-dependent fluorescence binding kinetics (time constant) [4] |
| --- | --- | --- | --- | --- |
| 2400 ± 300 nM | 2600 ± 300 nM | CN(C)c1cccc2c(S(=O)(=O)NCCCCCCCCCCC(=O)O)cccc12 [DAUDA, 11-((5-dimethylaminonaphthalene-1-sulfonyl)amino)undecanoic acid] |  |  |
|  |  | CCCCCCCCCCCCCCCC(=O)OC[C@H](COP(=O)([O-])OCC[N+](C)(C)C)OC(=O)CCCCCCCCCCCNc1ccc([N+](=O)[O-])c2nonc12 [NBD C12-HPC, 2-(12-(7-nitrobenz-2-oxa-1,3-diazol-4-yl)amino)dodecanoyl-1-hexadecanoyl-sn-glycero-3-phosphocholine] | 22.2 ± 0.4 s | 32.2 ± 0.2 s |
|  |  | C[C@H](CNc1ccc([N+](=O)[O-])c2nonc12)[C@H]1CC[C@H]2[C@@H]3CC=C4C[C@@H](O)CC[C@]4(C)[C@H]3CC[C@]12C [NBD cholesterol, 22-(N-(7-nitrobenz-2-oxa-1,3-diazol-4-yl)amino)-23,24-bisnor-5-cholen-3\u03B2-ol] | 3.3 ± 0.1 s | 11.8 ± 0.2 s |
